The structures appear in SMILES notation. Several values for one entry are separate records, joined by “and”; a condition that tells them apart may be missing. Identical values can stand only once. Activity calls are given as the source filed them. The rule behind the calls is not given here.

The subject of test [1] is Cricetinae gen. sp. Description: In vivo triglyceride lowering activity in fat-fed hamsters at a dose of 3 mg/kg, po for 7 days. Format: functional.
Test [2] concerns the target T1, Peroxisome proliferator-activated receptor delta (Homo sapiens, UniProt Q03181).
T1 sequence (Q03181 whole entry): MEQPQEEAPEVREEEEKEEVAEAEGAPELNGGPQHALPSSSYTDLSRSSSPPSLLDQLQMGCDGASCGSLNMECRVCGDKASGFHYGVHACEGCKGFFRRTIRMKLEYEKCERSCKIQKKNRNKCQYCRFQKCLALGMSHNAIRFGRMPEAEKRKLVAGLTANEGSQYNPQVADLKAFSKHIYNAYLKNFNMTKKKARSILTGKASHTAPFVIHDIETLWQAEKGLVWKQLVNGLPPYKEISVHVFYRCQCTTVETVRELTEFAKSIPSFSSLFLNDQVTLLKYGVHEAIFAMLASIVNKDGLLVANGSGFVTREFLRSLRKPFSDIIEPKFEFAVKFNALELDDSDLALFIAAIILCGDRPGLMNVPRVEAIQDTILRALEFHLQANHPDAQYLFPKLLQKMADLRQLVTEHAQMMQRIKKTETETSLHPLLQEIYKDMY
Description: In vitro transcriptional activation in CV-1 cells expressing human Gal4-PPAR delta ligand binding domain. Format: cell-based.

Test [3] deals with T2, Peroxisome proliferator-activated receptor gamma (Homo sapiens, UniProt P37231).
T2 sequence (P37231 whole entry): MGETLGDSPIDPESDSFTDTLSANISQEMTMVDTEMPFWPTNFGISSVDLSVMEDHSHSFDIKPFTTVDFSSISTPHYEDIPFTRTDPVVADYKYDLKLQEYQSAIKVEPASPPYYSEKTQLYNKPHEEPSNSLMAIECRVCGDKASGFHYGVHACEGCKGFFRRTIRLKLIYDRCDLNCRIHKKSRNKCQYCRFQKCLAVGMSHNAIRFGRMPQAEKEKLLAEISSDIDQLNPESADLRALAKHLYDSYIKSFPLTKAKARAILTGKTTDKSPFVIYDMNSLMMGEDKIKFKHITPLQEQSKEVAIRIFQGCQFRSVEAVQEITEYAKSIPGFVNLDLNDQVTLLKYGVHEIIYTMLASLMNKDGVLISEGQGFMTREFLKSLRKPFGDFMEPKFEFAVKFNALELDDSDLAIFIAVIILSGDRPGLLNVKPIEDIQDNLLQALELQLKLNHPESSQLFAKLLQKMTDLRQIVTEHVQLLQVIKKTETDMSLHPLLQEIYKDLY
Description: In vitro transcriptional activation in CV-1 cells expressing human Gal4-PPAR gamma ligand binding domain. Format: cell-based.

In test [4] the target is T3, Peroxisome proliferator-activated receptor alpha (Homo sapiens, UniProt Q07869).
T3 sequence (Q07869 whole entry): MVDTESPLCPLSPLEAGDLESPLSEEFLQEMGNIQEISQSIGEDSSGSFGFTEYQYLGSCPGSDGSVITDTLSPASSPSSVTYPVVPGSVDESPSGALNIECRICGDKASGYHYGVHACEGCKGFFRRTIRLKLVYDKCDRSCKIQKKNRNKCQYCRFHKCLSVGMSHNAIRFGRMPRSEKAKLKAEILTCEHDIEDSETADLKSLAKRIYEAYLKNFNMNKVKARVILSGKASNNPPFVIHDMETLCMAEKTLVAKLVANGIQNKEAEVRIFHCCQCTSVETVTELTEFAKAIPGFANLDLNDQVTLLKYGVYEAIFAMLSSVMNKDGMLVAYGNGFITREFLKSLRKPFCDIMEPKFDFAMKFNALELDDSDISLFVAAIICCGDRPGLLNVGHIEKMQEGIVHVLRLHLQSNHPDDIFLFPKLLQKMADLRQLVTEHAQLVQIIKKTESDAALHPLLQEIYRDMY
Description: In vitro transcriptional activation in CV-1 cells expressing human Gal4-PPAR alpha ligand binding domain

In test [5] the test system is Cricetinae gen. sp. Description: In vivo triglyceride lowering activity in fat-fed hamsters at a dose of 3 mg/kg, po for 7 days; not active. To be noted: Cricetulus griseus. The format is functional, organism-based. More on the design: dose 3 mg/kg.
The test system of test [6] is Rattus norvegicus. Description: In vivo triglyceride lowering activity in cholesterol/cholic acid fed rats at 3 mg/kg peroral dose for 4 days. Format: functional. The settings on record: route oral.
Test [7] concerns Rattus norvegicus. Description: In vivo decrease in serum apolipoprotein CIII in cholesterol/cholic acid fed rats at 3 mg/kg peroral dose for 4 days. The format is functional. On the set-up: scale not given: the % may be the effect or the level left. To be noted: route oral.
Test [8] has as its system Rattus norvegicus. Description: In vivo increase in HDL cholesterol in cholesterol/cholic acid fed rats at 3 mg/kg peroral dose for 4 days. The format is functional. To be noted: route oral.

Consider `Cc1ccc(NC(=O)N(CCCCC2CCCCC2)CCc2ccc(SC(C)(C)C(=O)O)cc2)cc1[N+](=O)[O-]`, for which the Activity in the test with Cricetinae gen. sp. [1] is on record as -78%. Besides, the EC50 (as a rule, the concentration that produces a half-maximal response) was more than 10000 nM in test [2], 2000 nM in test [3] and 20 nM in test [4].
Consider `COc1ccc(C)cc1NC(=O)N(CCc1ccc(SC(C)(C)C(=O)O)cc1)CCc1ccc(-c2ccccc2)cc1`, for which the Activity in the test with Cricetinae gen. sp. [1] is recorded as -33%. The EC50 is more than 10000 nM in test [2], 10000 nM in test [3] and 100 nM in test [4].
With `CC(C)(Sc1ccc(CCN(CCCCC2CCCCC2)C(=O)Nc2cc(Cl)cc(Cl)c2)cc1)C(=O)O`, the results for the EC50 in test [2], in test [3] and in test [4] were more than 10000 nM, 1000 nM and 1 nM, respectively. Further, the outcome in the test with Cricetinae gen. sp. [5] was inactive.
As for `CCCCCCCN(CCc1ccc(SC(C)(C)C(=O)O)cc1)C(=O)Nc1ccc(F)cc1F` [GSK-9578], the Activity in the test on Cricetinae gen. sp. [1] is given as -88%.
`COc1ccccc1NC(=O)N(CCCCC1CCCCC1)CCc1ccc(SC(C)(C)C(=O)O)cc1`: the EC50 was 1100 nM in test [2], 320 nM in test [3] and 5 nM in test [4]. For the same compound, in the test with Cricetinae gen. sp. [5], the result was inactive.
Regarding `CC(C)c1ccc(NC(=O)N(CCc2ccc(SC(C)(C)C(=O)O)cc2)CCc2ccc(-c3ccccc3)cc2)cc1`, the EC50 is > 10000 nM and 2000 nM in test [2]; 8500 nM and 1400 nM in test [3]; 17 nM and 20 nM in test [4]. Further, in the test on Cricetinae gen. sp. [5], the outcome was inactive.
For the compound `Cc1cc(C)c(NC(=O)N(CCc2ccc(SC(C)(C)C(=O)O)cc2)CCc2ccc(-c3ccccc3)cc2)cc1C`, the EC50 in test [2] was more than 10000 nM; in test [3], 1350 nM; in test [4], 9 nM. Further, in the test on Cricetinae gen. sp. [5], the outcome was inactive.
Regarding `CC(C)(Sc1ccc(CCN(CCCCC2CCCCC2)C(=O)Nc2cccc(C#N)c2)cc1)C(=O)O`, the Activity in the test on Cricetinae gen. sp. [1] is given as -69%. Further, the values for the EC50 in test [2], in test [3] and in test [4] were more than 10000 nM, 1000 nM and 9 nM, respectively.
Regarding `CC(C)(Sc1ccc(CCN(CCc2ccc(-c3ccccc3)cc2)C(=O)Nc2cc(Cl)cc(Cl)c2)cc1)C(=O)O`, the 50% effective concentration (EC50) in test [2] is more than 10000 nM; in test [3], 2000 nM; in test [4], 50 nM. The result in the test with Cricetinae gen. sp. [5] was inactive.
With `CC(C)(Sc1ccc(CCN(CCc2ccc(-c3ccccc3)cc2)C(=O)NC2CCCCC2)cc1)C(=O)O`, the Activity in the test on Cricetinae gen. sp. [1] is listed as -70%. The EC50 in test [2] was determined as 5000 nM; in test [3] it was 2400 nM; in test [4], 8 nM.
On to `COc1ccc(NC(=O)N(CCc2ccc(SC(C)(C)C(=O)O)cc2)CCc2ccc(-c3ccccc3)cc2)c(OC)c1`, for which the EC50 in test [2] came to 4000 nM; in test [3] it was 1200 nM; in test [4], 6 nM. Also, the result in the test on Cricetinae gen. sp. [5] was inactive.
For `CC(C)(Sc1ccc(CCN(CCCCC2CCCCC2)C(=O)NC2CCCCC2)cc1)C(=O)O` [GW7647], the Activity in the test on Cricetinae gen. sp. [1] is recorded as -93%; with Rattus norvegicus [6] it was 60%; in the test on Rattus norvegicus [7], 40%; with Rattus norvegicus [8], 60%.

The values above are taken from ChEMBL document CHEMBL1134264, “Identification of a subtype selective human PPARalpha agonist through parallel-array synthesis” (Bioorg Med Chem Lett, 2001).
